Entries after “also recorded” stand apart in the source; their conditions may differ. Read-outs that look alike come from different tables or passages of the source.
Experiments:
[1] = test system: FOXO3; test: FOXO3 siRNA knockdown: dependency for H2O2-resistance; format: cell-based, human; settings: for FOXO3-dependency for H2O2-resistance (experiment 3): with & without H2O2, FOXO3 knockdown in WI-38 cells
Description: For qPCR analysis, WI-38 cells were treated with small molecules (at 10 μM) (biological quadruplicates) for 24 hrs and processed for RNA isolation and reverse transcription (RT) with the Cells-to-Ct Kit (Life Technologies), following manufacturer's instructions. RT products were diluted with H2O and used for qPCR analysis on an ABI 7300 system (Life Technologies) (technical triplicates). Relative expression levels of target genes were normalized to the genes B2M, PPIA and GAPDH. To knock down the expression of FOXO3 or NRF2, WI-38 cells were transfected, using the RNAiMAX reagents (Life Technologies), with siRNA oligos (at 10 nM final concentration, 10 ml culture medium) for FOXO3 (Life Technologies) or NRF2 (Integrated DNA Technologies) on 10-cm petri dishes for 36 hrs, and then detached and aliquoted onto 96-well (for qPCR analysis) or 384-well plates (for H2O2-stress treatment). ˜24 hrs later, small molecules were introduced and incubated with cells for 24 hrs. Cells were then either processed with the Cells-to-Ct Kit to prepare RT products for qPCR analysis or subjected to H2O2 (700 μM) for 3 hrs and assayed for viability. The knockdown efficiency of FOXO3 or NRF2 was checked at 36 hrs post-transfection and at the end as well. […]
Applicants used siRNA to knock down FOXO3 expression by ˜70% in an attempt to identify whether the activation of these genes depends on activity of FOXO3 and/or NRF2. […] We used siRNA to knock down FOXO3 expression by ˜60% to 70% (FIG. 3; see data in Table 6). […] (Given the caveat that FOXO3 was not fully knocked down, partial dependency was scored when the H2O2-resistance capacity was reduced by at least 25% but less than 50% upon siRNA knockdown). At least for Gr-7A and Gr-7C, which are structurally related, the observed FOXO3-dependency for H2O2-resistance is consistent with their strong effects to induce FOXO3 target genes (Tables 1a-1f, Table 6, & Table 15), including SOD2 and GADD45A.

[2] = test system: C. elegans; test: C. elegans lifespan assays (liquid and plate); format: in vivo, Caenorhabditis elegans; settings: for ILS at 60 µM / ILS at 66 µM: Caenorhabditis elegans; for Extension of C. elegans' lifespan (qualitative): in at least 3 to 4 trials, group range ~10% to ~50%
[3] = test system: HTB-178 lung tumor cells (EGFR+, PIK3CA+, RB1−, TP53−); test: Killing effects on HTB-178 tumor cells; format: cell-based, human; settings: for Potential killing effects on HTB-178 tumor cells, 1st / Potential killing effects on HTB-178 tumor cells, 2nd: Assay 1(y), at 10 uM; for Assay 21: Potential killing effects on HTB-178 tumor cells: 10 uM, YES/NO
[4] = 60 μM, in liquid, wild type, with FuDR, 1.0 × 10^9 bacteria/ml, read-out: relative change of mean lifespan vs control, Trial 1
[5] = 60 μM, in liquid, wild type, with FuDR, 2.5 × 10^9 bacteria/ml, read-out: relative change of mean lifespan vs control, Trial 2
[6] = 60 μM, on plate, CF512 temperature-sensitive sterile animals, without FuDR, 2.0 × 10^10 bacteria/ml, read-out: relative change of mean lifespan vs control, Trial 3
[7] = Assay 2(z), at 66 uM, 1.0 × 10^9 bacteria/ml, wild type + FuDR (2012 July), read-out: Lifespan assay in liquid
[8] = Assay 3(aa), at 66 uM, 2.5 × 10^9 bacteria/ml, wild type + FuDR, read-out: Lifespan assay in liquid
[9] = Assay 4(ab), at 66 uM, 2.0 × 10^10 bacteria/ml, CF512 worms, no FuDR, read-out: Lifespan assay on plates
[10] = score scale 0 to 2, 4 to 6 independent trials
[11] = 60 μM, on plate, CF512 temperature-sensitive sterile animals, without FuDR, 1.0 × 10^11 bacteria/ml, read-out: relative change of mean lifespan vs control, Trial 4
[12] = Assay 5(ac), at 66 uM, 1.0 × 10^11 bacteria/ml, CF512 worms, no FuDR, read-out: Lifespan assay on plates
[13] = 10 uM, YES = resistance reduced by at least 50%, partial = 25% to 50%

| Structure (SMILES) | I = FOXO3-dependency for H2O2-resistance ([1]; score) | I = FOXO3-dependency for H2O2-resistance ([1]; summary score) | ILS at 60 µM [2, 4] [%] | ILS at 60 µM [2, 5] [%] | ILS at 60 µM [2, 6] [%] | ILS at 66 µM [2, 7] [%] | ILS at 66 µM [2, 8] [%] | ILS at 66 µM [2, 9] [%] | O = Life span- extending scores in worms [2, 10] | M = Lifespan-extending scores in worms ([2]; summary score) | Potential killing effects on HTB-178 tumor cells, 1st [3] | further results |
| --- | --- | --- | --- | --- | --- | --- | --- | --- | --- | --- | --- | --- |
| CCc1ccc(Oc2nc3ccccn3c(=O)c2/C=C(\C#N)C(=O)NC2CCCCC2)cc1 [Gr-5A] | 0 | 0 | 25.8 | -1.4 | -8.3 | 25.8 | -1.4 | -8.3 | 0 | 0 | YES; | – |
| Cc1cc(N)n(-c2ccccc2C(=O)O)n1 [Gr-6A] | 0 | 0 | 5.5 | 6.8 | 16.9 | 5.5 | 6.8 | 16.9 | 0 | 0 | YES; | ILS at 60 µM [2, 11]: -2.7%; ILS at 66 µM [2, 12]: -2.7% |
| O=C(NCc1cccnc1)/C(=C\c1ccc(Br)cc1)S(=O)(=O)c1ccccc1 [Gr-7B] | 0 | 0 | 1.3 | 3.5 | 14.9 | 1.3 | 3.5 | 14.9 | 0 | 0 | YES; | Assay 21: Potential killing effects on HTB-178 tumor cells [3]: YES; Toxicity / viability of HTB-178 lung tumor cells ([3]; 10 μM, preliminary data): exerted more pronounced toxicity; also recorded: significantly reduce the viability |
| COc1cc2c(no[n+]2[O-])n2nnnc12 [O11] | 0 | 0 | – | – | – | – | – | – | 1 (1 for lifespan extension observed in 2 trials) | 1 (1 for lifespan extension observed in 2 trials) | YES; | relative change of mean lifespan vs control, Trial 1 ([2]; 60 μM, in liquid, wild type, with FuDR, 1.0 × 10^9 bacteria/ml): +14.9%; relative change of mean lifespan vs control, Trial 2 ([2]; 60 μM, in liquid, wild type, with FuDR, 2.5 × 10^9 bacteria/ml): +6.0%; relative change of mean lifespan vs control, Trial 4 ([2]; 60 μM, on plate, CF512 temperature-sensitive sterile animals, without FuDR, 1.0 × 10^11 bacteria/ml): +9.0%; relative change of mean lifespan vs control, Trial 3 ([2]; 60 μM, on plate, CF512 temperature-sensitive sterile animals, without FuDR, 2.0 × 10^10 bacteria/ml): +21.0%; Lifespan assay in liquid ([2]; Assay 2(z), at 66 uM, 1.0 × 10^9 bacteria/ml, wild type + FuDR (2012 July)): +14.9%; Lifespan assay in liquid ([2]; Assay 3(aa), at 66 uM, 2.5 × 10^9 bacteria/ml, wild type + FuDR): +6.0%; Lifespan assay on plates ([2]; Assay 4(ab), at 66 uM, 2.0 × 10^10 bacteria/ml, CF512 worms, no FuDR): +21.0%; Lifespan assay on plates ([2]; Assay 5(ac), at 66 uM, 1.0 × 10^11 bacteria/ml, CF512 worms, no FuDR): +9.0% |
| CCCC(=O)Nc1ccc(-c2cn3cccc(C)c3n2)cc1 [O12] | 0 | 0 | 36.8 | 9.6 | 6.6 | 36.8 | 9.6 | 6.6 | 2 (2 for observed in more than 2 trials) | 2 (2 for observed in more than 2 trials) | YES; | Extension of C. elegans' lifespan (qualitative) [2]: could extend animal's lifespan |
| CCCN1C/C(=C\c2ccc(F)cc2)C(=O)/C(=C/c2ccc(F)cc2)C1 [O15] | 1 | 1 | 38 | 6.6 | 14.6 | 38 | 6.6 | 14.6 | 1 (1 for lifespan extension observed in 2 trials) | 1 (1 for lifespan extension observed in 2 trials) | YES; | FOXO3-dependency for H2O2-resistance, at 10 uM - with H2O2, 1st experiment ([1]; 10 uM, experiment 1 (1st), with H2O2): 1st, YES;; FOXO3-dependency for H2O2-resistance, at 10 uM (experiment 3) - with & without H2O2 ([1]; 10 uM): YES; FOXO3-dependency for H2O2-resistance (experiment 3) [1, 13]: YES; FOXO3-dependency for H2O2-resistance, 1st experiment ([1]; 10 uM, with H2O2, FOXO3 knockdown in WI-38 cells, YES = resistance reduced by at least 50%, partial = 25% to 50%): YES;; Assay 16: FOXO3-dependency for H2O2-resistance ([1]; 10 uM, YES/NO): YES; Requirement of FOXO3 to promote H2O2-resistance ([1]; FOXO3 siRNA, at least 2 of 3 independent experiments): required FOXO3; Potential killing effects on HTB-178 tumor cells, 2nd [3]: YES. |
| [O-][n+]1onc2c3nsnc3c(Br)cc21 [O17] | 0 | 0 | 1.7 | 22.6 | 19.7 | 1.7 | 22.6 | 19.7 | 2 (2 for observed in more than 2 trials) | 2 (2 for observed in more than 2 trials) | YES; | relative change of mean lifespan vs control, Trial 6 (confirmative) ([2]; 60 μM, on plate, temperature-sensitive sterile animals, without FuDR, 1.0 × 10^11 bacteria/ml): +20.8%; relative change of mean lifespan vs control, Trial 5 (confirmative) ([2]; 60 μM, on plate, temperature-sensitive sterile animals, without FuDR, 2.0 × 10^10 bacteria/ml): +15.2%; ILS at 60 µM [2, 11]: 17.8%; ILS at 66 µM [2, 12]: 17.8%; ILS at 66 µM ([2]; Assay 6(ad), at 66 uM, 2.0 × 10^10 bacteria/ml, CF512 worms, no FuDR, read-out: Lifespan assay on plates): 15.2%; ILS at 66 µM ([2]; Assay 7(ae), at 66 uM, 1.0 × 10^11 bacteria/ml, CF512 worms, no FuDR, read-out: Lifespan assay on plates): 20.8%; Extension of C. elegans' lifespan (qualitative) [2]: could extend animal's lifespan; Potential killing effects on HTB-178 tumor cells, 2nd [3]: YES. |
| COc1ccc(/C=C2\SC(=N)N(c3nccs3)C2=O)cc1 [O21] | 0 | 0 | 7.9 | -0.5 | 12.2 | 7.9 | -0.5 | 12.2 | 0 | 0 | – | FOXO3-dependency for H2O2-resistance, at 10 uM (experiment 3) - with & without H2O2 ([1]; 10 uM): YES; FOXO3-dependency for H2O2-resistance (experiment 3) [1, 13]: YES |
| Oc1ccccc1-c1noc(-c2ccccc2O)n1 [O27] | 0 | 0 | – | – | – | – | – | – | – | – | – | ILS at 66 µM ([2]; read-out: Lifespan assay on plates): -69.3%; ILS at 60 µM ([2]; read-out: relative change of mean lifespan vs control, Trial 1): -35.1%; ILS at 60 µM ([2]; read-out: relative change of mean lifespan vs control, Trial 2): -17.8%; ILS at 60 µM ([2]; read-out: relative change of mean lifespan vs control, Trial 3): -69.3%; M = Lifespan-extending scores in worms ([2]; in vivo): 0; O = Life span- extending scores in worms ([2]; in vivo): 0; Assay 21: Potential killing effects on HTB-178 tumor cells [3]: YES |
